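Protocol summary: plate cells (96-well), add compound at 5 concentrations, incubate 48 h, interpolate endpoints linearly. Abbreviation: GI50, concentration required for 50% inhibition of growth.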 Calls of active or inactive are those of the source. No stated cut-off is given here; in the data, active = GI50 up to about 1.1 µM and inactive = higher.
How the values were obtained:
Assay in all cases: inhibition of tumour cell growth, NCI panel, 48 h
[1] = system: MOLT-4
[2] = system: HOP-62
[3] = system: A549
[4] = system: OVCAR-8
[5] = system: OVCAR-4
[6] = system: 786-0
[7] = system: HL-60
[8] = system: Malme-3M
[9] = system: CAKI-1
[10] = system: HCC 2998
[11] = system: KM12
[12] = system: SW-620
[13] = system: TK-10
[14] = system: COLO 205
[15] = system: HCT-116
[16] = system: UO-31
[17] = system: OVCAR-5
[18] = system: OVCAR-3
[19] = system: SNB-19

Compound: COc1ccc(C2=C(OC(C)=O)c3cccn3-c3ccccc3S2)cc1
- GI50 [1]: 4.06 µM (inactive)
- GI50 [2]: 3.1 µM (inactive)
- GI50 [3]: 7.53 µM (inactive)
- GI50 [4]: 5.82 µM (inactive)
- GI50 [5]: 4.69 µM (inactive)
- GI50 [6]: 2.46 µM (inactive)
- GI50 [7]: 0.512 µM (active)
- GI50 [8]: 2.7 µM (inactive)
- GI50 [9]: 4.55 µM (inactive)
- GI50 [10]: 2.95 µM (inactive)
- GI50 [11]: 2.62 µM (inactive)
- GI50 [12]: 2.55 µM (inactive)
- GI50 [13]: > 10 µM (inactive)
- GI50 [14]: 2.7 µM (inactive)

Compound: CCN1c2ccccc2-c2c3c1cc(C)cc3c1ccccc1[n+]2CC
- GI50 [1]: 1.04 µM (active)
- GI50 [2]: 2.04 µM (inactive)
- GI50 [3]: 2.4 µM (inactive)
- GI50 [4]: 0.427 µM (active)
- GI50 [5]: 1.57 µM (inactive)
- GI50 [15]: 0.644 µM (active)
- GI50 [6]: 1.59 µM (inactive)
- GI50 [7]: 1.16 µM (inactive)
- GI50 [8]: 1.15 µM (inactive)
- GI50 [9]: 2.26 µM (inactive)
- GI50 [16]: 7.13 µM (inactive)
- GI50 [17]: 1.5 µM (inactive)
- GI50 [10]: 0.811 µM (active)
- GI50 [18]: 0.476 µM (active)
- GI50 [11]: 0.339 µM (active)
- GI50 [19]: 0.528 µM (active)
- GI50 [12]: 1.11 µM (active)
- GI50 [13]: 2.56 µM (inactive)

Compound: O=[N+]([O-])C1C2C=CC(C2)[C@H]1c1ccc(Cl)cc1Cl (stereo not given in full)
- GI50 [1]: 26.7 µM (inactive)
- GI50 [2]: > 10 µM (inactive)
- GI50 [3]: 35.2 µM (inactive)
- GI50 [4]: 57.1 µM (inactive)
- GI50 [5]: > 10 µM (inactive)
- GI50 [15]: 37 µM (inactive)
- GI50 [6]: 54.3 µM (inactive)
- GI50 [7]: 19.3 µM (inactive)
- GI50 [8]: 42.3 µM (inactive)
- GI50 [9]: > 10 µM (inactive)
- GI50 [16]: 26.4 µM (inactive)
- GI50 [17]: 75.2 µM (inactive)
- GI50 [10]: 75.5 µM (inactive)
- GI50 [11]: 61.2 µM (inactive)
- GI50 [19]: 48.5 µM (inactive)
- GI50 [12]: 74.5 µM (inactive)
- GI50 [13]: 69.7 µM (inactive)

Compound: O=C(c1ccccc1)c1c(CC(O)c2ccccc2)n(C(=O)c2ccccc2)c2ccccc12 (stereo not given)
- GI50 [1]: 16.6 µM (inactive)
- GI50 [2]: 24.2 µM (inactive)
- GI50 [3]: 31.6 µM (inactive)
- GI50 [4]: 57.7 µM (inactive)
- GI50 [5]: 35.5 µM (inactive)
- GI50 [15]: 23.1 µM (inactive)
- GI50 [6]: > 100 µM (inactive)
- GI50 [7]: 31.3 µM (inactive)
- GI50 [8]: 56.2 µM (inactive)
- GI50 [9]: 55.7 µM (inactive)
- GI50 [16]: 19.9 µM (inactive)
- GI50 [17]: > 100 µM (inactive)
- GI50 [10]: 42.1 µM (inactive)
- GI50 [18]: 28.8 µM (inactive)
- GI50 [11]: 32 µM (inactive)
- GI50 [19]: 36.4 µM (inactive)
- GI50 [12]: 50.7 µM (inactive)
- GI50 [13]: > 100 µM (inactive)
- GI50 [14]: 47.6 µM (inactive)

Compound: NC(=S)NNC(=O)CCC(=O)Nc1ccc(Cl)cc1Cl
- GI50 [1]: 55.3 µM (inactive)
- GI50 [2]: > 100 µM (inactive)
- GI50 [3]: > 100 µM (inactive)
- GI50 [4]: > 100 µM (inactive)
- GI50 [5]: > 100 µM (inactive)
- GI50 [15]: > 100 µM (inactive)
- GI50 [6]: > 100 µM (inactive)
- GI50 [7]: > 100 µM (inactive)
- GI50 [8]: > 100 µM (inactive)
- GI50 [9]: > 100 µM (inactive)
- GI50 [16]: > 100 µM (inactive)
- GI50 [17]: > 100 µM (inactive)
- GI50 [10]: > 100 µM (inactive)
- GI50 [18]: > 100 µM (inactive)
- GI50 [11]: > 100 µM (inactive)
- GI50 [19]: > 100 µM (inactive)
- GI50 [12]: > 100 µM (inactive)
- GI50 [13]: > 100 µM (inactive)
- GI50 [14]: > 100 µM (inactive)

Compound: Cc1cc(C)n(-c2nc3ccccc3c(=O)n2-c2ccccc2)n1
- GI50 [1]: > 100 µM (inactive)
- GI50 [2]: > 100 µM (inactive)
- GI50 [3]: > 100 µM (inactive)
- GI50 [4]: > 100 µM (inactive)
- GI50 [5]: > 100 µM (inactive)
- GI50 [15]: > 100 µM (inactive)
- GI50 [6]: > 100 µM (inactive)
- GI50 [7]: > 100 µM (inactive)
- GI50 [8]: > 100 µM (inactive)
- GI50 [9]: > 100 µM (inactive)
- GI50 [16]: 0.621 µM (active)
- GI50 [17]: > 100 µM (inactive)
- GI50 [10]: > 100 µM (inactive)
- GI50 [18]: > 100 µM (inactive)
- GI50 [19]: > 100 µM (inactive)
- GI50 [12]: > 100 µM (inactive)
- GI50 [13]: > 100 µM (inactive)
- GI50 [14]: > 100 µM (inactive)

— ChEMBL document CHEMBL1201862, “PubChem BioAssay data set” (2004)
